Measurements taken from patent publication US20140005145A1, “COMBINATION BREAST CANCER THERAPY WITH HSP90 INHIBITORY COMPOUNDS” (SYNTA PHARMACEUTICALS CORP., priority 2010, published 2014).

Columns and labels:
[1] = tested on: MCF-7 human breast cancer tumor cells; assay: MCF-7 human breast tumor xenograft in nude mice, Compound 1 with or without tamoxifen; format: in vivo
Procedure: Tumor-bearing animals (5 mice/group) were i.v. injected 1 time per week for a total of 3 doses with 10 mL/kg of 10/18 DRD vehicle with or without 180 mg/kg Compound 1. Animals were also implanted with slow release tamoxifen pellets (Tam). In the combination treatment group, animals were dosed with Compound 1 four days after tamoxifen pellets were implanted. Each group that was not dosed with Compound 1 was instead dosed with 10/18 DRD vehicle as a mock treatment. Average tumor volumes for each group were determined every 3-5 days.
The human breast cancer cell line, MCF-7, was obtained from the American Type Culture Collection (Manassas, Va., USA) and grown according to the ATCC guidelines. MCF-7 xenografts were established in twenty nude mice (Charles River Laboratories, Wilmington, Mass., USA) supplemented with slow release estrogen pellets as previously described, using 5×10^6 cells (1), and randomized into treatment groups. Ten days after cells were inoculated half of the animals were supplemented with slow release tamoxifen pellets.
To formulate Compound 1 in 10/18 DRD, stock solutions of the test article were prepared by dissolving the appropriate amounts of the compound in dimethyl sulfoxide (DMSO) by sonication in an ultrasonic water bath. Stock solutions were prepared weekly, stored at −20° C. and diluted fresh each day for dosing. A solution of 20% Cremophor RH40 (polyoxyl 40 hydrogenated castor oil; BASF Corp., Aktiengesellschaft, Ludwigshafen, Germany) in 5% dextrose in water (D5W; Abbott Laboratories, North Chicago, Ill., USA) was also prepared by first heating 100% Cremophor RH40 at 50-60° C. until liquefied and clear, diluting 1:5 with 100% D5W, reheating again until clear and then mixing well. This solution was stored at room temperature for up to 3 months prior to use. To prepare 10/18 DRD formulations for daily dosing, DMSO stock solutions were diluted 1:10 with 20% Cremophor RH40. The final 10/18 DRD formulation for dosing contained 10% DMSO, 18% Cremophor RH40, 3.6% dextrose, 68.4% water and the appropriate amount of test article. Animals were intravenously (i.v.) injected with this formulation at 10 mL per kg body weight on one day each week for a total of 3 doses, four days after tamoxifen pellets were implanted.
The ability of Compound 1 to enhance the in vivo anti-tumor activity of tamoxifen was investigated.

[2] = tested on: MCF-7 breast cancer cells; assay: Emergence of tamoxifen resistant clones in MCF-7 cell culture; format: cell-based, human; conditions: tamoxifen combined with compound 1, MCF-7 cell culture

Structure (SMILES) | adverse finding in dosed animals ([1]; Compound 1 alone cohort, 180 mg/kg i.v., one of the animals, following the first dose, removed from the study) | in vivo growth rate of MCF-7 cells (tumor volume) ([1]; Compound 1 alone, 180 mg/kg i.v. 1 time per week, 3 doses, nude mice) | effect in combination with tamoxifen in the treatment of breast cancer ([1]; in combination with tamoxifen, preclinical model) | tumor response (tumor volume) to the combination ([1]; slow release tamoxifen combined with 180 mg/kg Compound 1 i.v. 1 time per week, 3 doses, nude mice) | emergence of tamoxifen resistant clones [2] | in vivo growth rate of MCF-7 cells (tumor volume) ([1]; slow release tamoxifen pellets alone (10/18 DRD vehicle as mock treatment), nude mice)
CC(C)c1cc(-c2nnc(O)n2-c2ccc3c(ccn3C)c2)c(O)cc1O [Compound 1, 3-(2,4-dihydroxy-5-isopropyl-phenyl)-4-(1-methyl-indol-5-yl)-5-hydroxy-[1,2,4]triazole] | signs of necrosis in the tail | moderate reductions in the growth rate | surprising synergistic effect | significant tumor regression | dramatically limited the emergence of tamoxifen resistant clones | 
CC/C(=C(\c1ccccc1)c1ccc(OCCN(C)C)cc1)c1ccccc1 [tamoxifen, reference compound] |  |  |  |  |  | moderate reductions in the growth rate
